From paper PMC8063233 (The Journal of Clinical Endocrinology and Metabolism, 2020)

Assay: Plasma pharmacokinetics on day 7 of each treatment period
Assay type: in vivo, human
Settings: day 7, verinurad + febuxostat with placebo (n = 36)

CC(C)(Sc1ccncc1-c1ccc(C#N)c2ccccc12)C(=O)O [Verinurad, verinurad]
tmax, Median (min-max): 4.00 (3.00-8.08) h
